Data on two compounds can be found in PMC10545747, “Development of cyclopeptide inhibitors of cGAS targeting protein-DNA interaction and phase separation” (Nature Communications, 2023).

The structures appear in SMILES notation. “And” between values parts separate entries of the source, which are not always exact repeats. Equal values may be shown once. “Also recorded” adds a separate entry of the source. Square brackets hold non-standard residues; d marks the D form. Peptide text beside a SMILES is read from it.

One test concerns Hela cells. The test can be described thus: Immunofluorescence of IRF3 and p-IRF3 after HSV-1. In kind it is cell-based, human. The method, then:
Hela cells were treated as described for the indicated time and then fixed with 4% paraformaldehyde for 25 min, permeabilized with 0.25% Triton X-100 for 10 min, and blocked in 1% BSA for 1 h at 37 °C. Then, cells were incubated with indicated primary antibodies overnight at 4 °C, and followed by incubating with donkey anti-rabbit IgG Alexa Fluor 488-labeled secondary antibodies (Abcam, Cat# ab150073, 1:200) for 1 h at 37 °C. The nuclei were counterstained with DAPI (Sigma-Aldrich) before the images were acquired using a Nikon A1R+ confocal microscope.

A further test deals with THP1 cells. The test can be described thus: Immunoblotting of phosphorylated IRF3/TBK1 and nuclear IRF3. The test is classed as cell-based, human. The method, then: Total cell lysates were prepared in RIPA lysis buffer (Beyotime Biotechnology) supplemented with 1 mM PMSF and 1× protease inhibitor cocktail (Yeasen), and nuclear protein was extracted by nuclear protein extraction kit (Solarbio) in accordance with the manufacturer’s instructions. The samples were separated by SDS-PAGE and transferred to the PVDF membrane (Millipore). The membranes were incubated with the indicated primary antibodies at 4 °C overnight and then incubated with an HRP-conjugated anti-rabbit IgG antibody (Cell Signaling, Cat# 7074, 1:5000) or anti-mouse IgG antibody (Cell Signaling, Cat# 7076, 1:5000) at room temperature for 1 h. The signal was visualized by using the NcmECL Ultra kit (New Cell & Molecular Biotech) and then was exposed by using MiniChemi (SageCreation).
A general note: In western blotting, separated proteins are transferred to a membrane and probed.

In a further test the test system is Trex1^-/- mice. The experiment in a line: Trex1^-/- mice model of autoimmune disease (survival, H&E, heart qPCR, antinuclear antibody). The test is classed as in vivo, mouse. The arrangement: Score per animal, Heart (Fig. 7d) / Score per animal, Stomach (Fig. 7d) / Score per animal, Tongue (Fig. 7d) / Score per animal, Kidney (Fig. 7d) / Score per animal, Muscle (Fig. 7d): scale not given here; Ifnb1 mRNA level (Fig. 7e) / Cxcl10 mRNA level (Fig. 7e) / Il6 mRNA level (Fig. 7e): unit not given here. The text has this:
Aberrant accumulation of cytosolic self-dsDNA caused by loss-of-function mutations in Trex1 leads to overactivation of cGAS-STING pathway, which is associated with autoinflammatory diseases. To evaluate whether the optimized analogue XQ2B inhibits the overactivation of cGAS-STING pathway due to Trex1 deficiency, we first tested the effects of XQ2B on the expression of Ifnb1, Cxcl10 and Il6 in BMDMs harvested from Trex1^-/- mice (Supplementary Fig. 9a, b). […] We next evaluated the anti-inflammatory effect of XQ2B in Trex1^-/- mice. XQ2B (10 mg/kg) was intravenously injected into mice every other day. Six animals from each group were sacrificed on day seven to assess tissue pathology, and the rest (10 mice per group) were used to analyze survival for up to 11 days (Fig. 7b). […] Mice were killed and tissues were collected on day seven for histology and mRNA analysis.
C57BL/6 6–8 weeks old wild type (WT) mice were purchased from Gempharmatech. C57BL/6 Trex1^+/- mice were purchased from Cyagen. Trex1^-/- mice were generated by further mating the male and female Trex1^+/- mice, and 8-week-old male Trex1^-/- mice were used in the experiment. Mice were housed in groups of up to 5 mice/cage at 18 °C − 24 °C ambient temperatures with 40–60% humidity. Mice were maintained on a 12 h light/ dark cycle 6 am to 6 pm. Food and water were available ad libitum. Femurs and tibias were removed from sex-matched mice of 6–8 weeks old, and the ends were clipped. Marrow was pushed from bones by using a syringe, and cell clumps were broken apart into cell particles by pipetting in PBS, and passed through a 70 μm cell strainer. Cells were resuspended in red blood cell lysis buffer (Solarbio) for 5 min after being centrifuged with 200 × g for 5 min, and were resuspended in cell culture media (DMEM) with an additional M-CSF (50 ng/ml) after centrifugation, and then were seeded into a 12-well plate. Half of the cell culture media was replaced with a fresh medium on the third day, and performed a complete media change on the fifth day. BMDMs were used for subsequent experiments after the seventh day. All the animal experiments in these studies were approved and overseen by the ethics committee of the Laboratory Animal Center of Peking University Shenzhen Graduate School in accordance with the Policy on the Care, Welfare, and Treatment of Laboratory Animals. The assigned approval or accreditation number is AP0020005.
Tissues were resected and fixed successively in 4% paraformaldehyde, and embedded in paraffin according to the standard procedure, and then sectioned into 10-μm slices and placed on positively charged microscope slides. Sections of the brain were subjected to immunohistochemical (IHC) staining with an anti-HSV-1 antibody (Abcam, 1:100) and HRP-conjugated anti-rabbit IgG antibody (Cell Signaling, Cat# 7074, 1:200) according to standard procedures. Sections of the heart, stomach, tongue, kidney and muscle were stained with hematoxylin and eosin. Tissue sections were visualized using an Olympus IX73 microscope (20× Objective).
Anti-nuclear antibodies were performed with 1:160 diluted sera by using a FLUORO HEPANA TEST kit (MBL BEIJING BIOTECH) according to the manufacturer’s protocols.
(In general: Quantitative PCR measures a nucleic acid by following its amplification.)

Where [1] appears, read: 10 mg/kg i.v. every other day, day seven.

As to `CC(C)C[C@@H]1NC(=O)[C@H](CCCNC(=N)N)NC(=O)[C@H](C(C)C)NC(=O)[C@@H]2CCCN2C(=O)[C@@H](Cc2ccccc2)NC(=O)[C@H](CC(C)C)NC(=O)[C@H](CCCNC(=N)N)NC(=O)[C@H](C(C)C)NC(=O)[C@H](C)NC(=O)[C@@H](Cc2ccccc2)NC1=O` [XQ2, Cyclo (LfAVRLfPVR)] (cyclo(L[dF]AVRL[dF]PVR)), in the test on Hela cells (HSV-1 6 h, 10 μM), the “quantification of cells with nuclear IRF3, Fig. 2f” value is 5.1642 and 6.6102 and 7.0558; the “quantification of cells with p-IRF3, Fig. 2g” value was 0.5674 and 0.8706 and 1.039. Besides, in the test on Hela cells (HSV-1, 10 μM), the “nuclear translocation and phosphorylation of IRF-3, immunofluorescence” value was “significantly inhibited the nuclear translocation and phosphorylation of IRF-3 triggered by HSV-1”. Besides, the “nuclear translocation of IRF-3, fractionation immunoblot” value with THP1 cells (ISD or HSV-1, 10 μM) is “substantially suppressed the nuclear translocation of IRF-3 induced by ISD and HSV-1”. For the same compound, the “phosphorylation of TBK-1 and IRF-3” value in the test with THP1 cells (ISD/dsDNA 6 h) was “markedly decreased phosphorylation of TBK-1 and IRF-3 induced by ISD”.

As for `CC(C)C[C@@H]1NC(=O)[C@H](CCCNC(=N)N)NC(=O)[C@H](C(C)C)NC(=O)[C@@H]2CCCN2C(=O)[C@@H](Cc2ccccc2)NC(=O)[C@H](CC(C)C)NC(=O)[C@H](CCCNC(=N)N)NC(=O)[C@H]([C@@H](C)O)NC(=O)[C@H](C)NC(=O)[C@@H](Cc2ccccc2)NC1=O` [XQ2B] (cyclo([dF]ATRL[dF]PVRL)), the “serum level of antinuclear antibody” value in the test with Trex1^-/- mice (10 mg/kg i.v. every other day) is listed as “markedly reduced by XQ2B treatment”. In addition, in the test with Trex1^-/- mice (setting [1]), the “heart Ifnb1, Cxcl10 and Il6 mRNA” value was “significantly suppressed the mRNA level of Ifnb1, Cxcl10 and Il6 caused by Trex1 deficiency”; the “tissue inflammation, H&E” value is “ameliorates rather than reverses the systemic inflammation in Trex1-/- mice; also recorded: significantly attenuated the inflammation”. Moreover, the “survival of Trex1^-/- mice” value in the test with Trex1^-/- mice (10 mg/kg i.v. every other day, up to 11 days, n = 10, 3 of 10 untreated died) is given as “none of the 10 mice treated with XQ2B died during treatment”. Further, in the test on Trex1^-/- mice (KO(XQ2B)), the “Score per animal, Heart (Fig. 7d)” value was 5 (2×) and 8 (2×) and 6 and 4 and 7 and 9; the “Score per animal, Kidney (Fig. 7d)” value is 3 (2×) and 6 and 5 (2×) and 2 and 4 and 7; the “Score per animal, Muscle (Fig. 7d)” value was 4 (3×) and 2 and 6 and 3 (2×) and 5; the “Score per animal, Stomach (Fig. 7d)” value was 3 and 8 (2×) and 6 and 9 and 5 (2×) and 7. For the same compound, the “Score per animal, Tongue (Fig. 7d)” value in the test with Trex1^-/- mice (KO(XQ2B)) is 3 and 7 (2×) and 8 and 5 (2×) and 6 and 4. Besides, in the test with Trex1^-/- mice (Trex1 KO+XQ2B, per animal), the “Cxcl10 mRNA level (Fig. 7e)” value is 99.6532 and 144.536 and 126.503 and 174.75 and 186.166; the “Ifnb1 mRNA level (Fig. 7e)” value was 12.3782 and 6.326 and 6.444 and 5.852 and 6.524; the “Il6 mRNA level (Fig. 7e)” value was 3.8548 and 4.605 and 4.215 and 10.789 and 5.351.
